{
  "source": "paper PMC8398847",
  "about": "“Isavuconazole: Thermodynamic Evaluation of Processes Sublimation, Dissolution and Partition in Pharmaceutically Relevant Media” (Molecules, 2021)",
  "assay": "Vapor pressure by transpiration (inert gas-carrier transfer) method; sublimation thermodynamic functions",
  "assay_type": "physicochemical",
  "conditions": "for lnp: p in Pa",
  "protocol": "The thermodynamic functions of sublimation were calculated as the fitting coefficients of the Clarke and Glew equation [17]:(1) Rlnp/p^0=ΔcrgGm°(θ)/θ+ΔcrgHm°(θ)(1/θ−1/T)+ΔcrgCp,m°(θ)(θ/T−1+lnT/θ) where ΔcrgHm°(θ) is the standard molar sublimation enthalpy, ΔcrgGm°(θ) is the standard molar Gibbs energy of sublimation, and ΔcrgCp,m°(θ) is the difference between the constant pressure standard molar heat capacity Cp,m°(g) of the gaseous compound and the constant pressure standard molar heat capacity Cp,m°(cr) of the crystalline compound. The value is the arbitrary reference temperature θ = 298.15 K; p^0 = 10^5 Pa is the reference pressure.\nThe transpiration method was used for the sublimation experiment. A stream of an inert gas (nitrogen) was passed over a sample at the constant temperature and flow rate; saturation of the gas with the substance vapor was achieved by low transpiration rate of gas. Then, the sublimated quantity of condensed vapor was determined. The volume of the inert gas and the amount of the sublimated material were used for calculation the vapor pressure over the sample of compound at this temperature. The following procedure was used for determination the amount of sublimed substance. The condensed sample was dissolved in a known volume of solvent Vsol. The mass of the substance was determined by the measurement of absorbance A of its solution (spectrophotometer Cary-50, Varian, Palo Alto, CA, USA, Software Version 3.00 (339)). According to the Lambert–Beer law the concentration of the solution c (mol·L^−1) can express knowing a value of the extinction coefficient ε (l·mol^−1·cm^−1) of the studied compound dissolved in the solvent and an absorbing path length (l):A = εcl(5) where l is an absorbing path length. Calculation the mass of sublimed compound was performed according to the equation:m = cVsolM(6)\nM is the molar mass of the studied substance.\nThe vapor pressure p at each temperature was determined from the amount of the substance collected within a known time:p = mRTa/VM(7) where V is the volume of the gaseous nitrogen evaluated from the time measurement and the flow rate at the flow meter temperature Ta and the atmospheric pressure. Uncertainties for transpiration experiment parameters (T, m, Ta, V) are reported as standard deviations (Table 1). The combined standard uncertainty of vapor pressure measurements were estimated taking into account uncertainties of all variables involved in eq 7.\nThe details of equipment and experimental procedure are given in [33]. The sublimation technique was tested with benzoic acid as standard. The experimental vapor pressure values were obtained in the temperature interval of (307–385) K and were in good agreement with the results of studies within the limits of experimental error (Figure S7). The standard sublimation enthalpy of benzoic acid measured by us was 90.5 ± 0.3 kJ·mol^−1 and consistent with recommended by IUPAC value—89.7 ± 0.5 kJ·mol^−1 [38]. Each experiment at fixed temperature was repeated three times with the standard deviation of up to 5%.",
  "key": {"[1]": {"conditions": "298.15 K, experimental, Clarke and Glew equation"}},
  "note": "“And” between values parts separate entries of the source, which are not always exact repeats. Identical values can stand only once.",
  "data": [
    {"smiles": "C[C@@H](c1nc(-c2ccc(C#N)cc2)cs1)[C@](O)(Cn1cncn1)c1cc(F)ccc1F", "note": "[IVZ, Isavuconazole]", "values": [
      {"measurement": "standard molar Gibbs energy of sublimation ΔcrgGm°(298.15 K)", "setting": "[1]", "value": "16.5 ± 0.048", "unit": "kcal/mol"},
      {"measurement": "standard molar enthalpy of sublimation ΔcrgHm°(298.15 K)", "setting": "[1]", "value": "33.01 kcal/mol and 33.01 ± 0.12 kcal/mol"},
      {"measurement": "standard molar Gibbs energy of sublimation ΔcrgGm°(298.15 K)", "setting": "298.15 K, experimental, Clarke and Glew equation, listed as Isavuconazole", "value": 16.5, "unit": "kcal/mol"},
      {"measurement": "vapor pressure 10^3 p", "setting": "365.15 K", "value": 1.95, "unit": "Pa"},
      {"measurement": "saturated vapor pressure values", "setting": "365.15–383.15 K", "value": "0.001–0.01 Pa"},
      {"measurement": "vapor pressure 10^3 p", "setting": "367.15 K", "value": 2.50, "unit": "Pa"},
      {"measurement": "vapor pressure 10^3 p", "setting": "369.15 K", "value": 3.19, "unit": "Pa"},
      {"measurement": "vapor pressure 10^3 p", "setting": "371.15 K", "value": 4.02, "unit": "Pa"},
      {"measurement": "vapor pressure 10^3 p", "setting": "372.15 K", "value": 4.55, "unit": "Pa"},
      {"measurement": "vapor pressure 10^3 p", "setting": "373.15 K", "value": 5.11, "unit": "Pa"},
      {"measurement": "vapor pressure 10^3 p", "setting": "374.15 K", "value": 5.72, "unit": "Pa"},
      {"measurement": "vapor pressure 10^3 p", "setting": "376.15 K", "value": 7.22, "unit": "Pa"},
      {"measurement": "vapor pressure 10^3 p", "setting": "378.15 K", "value": 8.83, "unit": "Pa"},
      {"measurement": "vapor pressure 10^3 p", "setting": "379.15 K", "value": 9.83, "unit": "Pa"},
      {"measurement": "vapor pressure 10^3 p", "setting": "380.15 K", "value": 11.19, "unit": "Pa"},
      {"measurement": "vapor pressure 10^3 p", "setting": "381.15 K", "value": 12.30, "unit": "Pa"},
      {"measurement": "vapor pressure 10^3 p", "setting": "382.15 K", "value": 13.79, "unit": "Pa"},
      {"measurement": "vapor pressure 10^3 p", "setting": "383.15 K", "value": 15.37, "unit": "Pa"},
      {"measurement": "lnp", "setting": "365.15 K", "value": "−6.241"},
      {"measurement": "lnp", "setting": "367.15 K", "value": "−5.991"},
      {"measurement": "lnp", "setting": "369.15 K", "value": "−5.749"},
      {"measurement": "lnp", "setting": "371.15 K", "value": "−5.515"},
      {"measurement": "lnp", "setting": "372.15 K", "value": "−5.393"},
      {"measurement": "lnp", "setting": "373.15 K", "value": "−5.277"},
      {"measurement": "lnp", "setting": "374.15 K", "value": "−5.163"},
      {"measurement": "lnp", "setting": "376.15 K", "value": "−4.931"},
      {"measurement": "lnp", "setting": "378.15 K", "value": "−4.729"},
      {"measurement": "lnp", "setting": "379.15 K", "value": "−4.622"},
      {"measurement": "lnp", "setting": "380.15 K", "value": "−4.493"},
      {"measurement": "lnp", "setting": "381.15 K", "value": "−4.398"},
      {"measurement": "lnp", "setting": "382.15 K", "value": "−4.283"},
      {"measurement": "lnp", "setting": "383.15 K", "value": "−4.175"},
      {"measurement": "ΔcrgSm°(298.15 K)", "setting": "sublimation, 298.15 K", "value": "230.4 ± 4.6", "unit": "J·mol^−1·K^−1"},
      {"measurement": "ΔcrgCp,m°", "setting": "sublimation, gas minus crystal heat capacity", "value": "−71.8", "unit": "J·mol^−1·K^−1"}
    ]}
  ]
}
